From the NIST ThermoML archive (doi:10.1016/j.jct.2009.07.005)
Numbers after ± are expanded uncertainties.

How the values were obtained:
[1] = molar heat capacity at constant pressure; details: 101.33 kPa, Liquid, Small sample (50 mg) DSC
[2] = molar heat capacity at constant pressure; xn = mol fraction of the nth substance listed; details: 101 kPa, Liquid, Small sample (50 mg) DSC
[3] = xn = mol fraction of the nth substance listed; details: 101 kPa, Liquid, Small sample (50 mg) DSC

C1CNCCN1 [piperazine]
[1]
Details	molar heat capacity at constant pressure [J/K/mol]
393.2 K	216.3 ± 4
398.2 K	218.7 ± 4
403.2 K	220.5 ± 4.1
408.2 K	222.8 ± 4.1
413.2 K	225 ± 4.1

C1CNCCN1 [piperazine] + CN(CCO)CCO
Details	excess molar heat capacity, x1 = 0.1 [J/K/mol]	excess molar heat capacity, x1 = 0.2 [J/K/mol]	excess molar heat capacity, x1 = 0.3 [J/K/mol]	excess molar heat capacity, x1 = 0.4 [J/K/mol]	molar heat capacity at constant pressure, x1 = 0.1 [J/K/mol]	molar heat capacity at constant pressure, x1 = 0.2 [J/K/mol]	molar heat capacity at constant pressure, x1 = 0.3 [J/K/mol]	molar heat capacity at constant pressure, x1 = 0.4 [J/K/mol]
[2], 303.2 K	–	–	–	–	264.4 ± 4.6	256.6 ± 4.5	248.7 ± 4.4	240.1 ± 4.3
[2], 308.2 K	–	–	–	–	267.7 ± 4.6	260 ± 4.5	252 ± 4.4	243.3 ± 4.3
[2], 313.2 K	–	–	–	–	271.1 ± 4.6	263.3 ± 4.5	255.2 ± 4.5	246.6 ± 4.4
[2], 318.2 K	–	–	–	–	274.4 ± 4.7	266.7 ± 4.6	258.5 ± 4.5	249.8 ± 4.4
[2], 323.2 K	–	–	–	–	277.7 ± 4.7	270 ± 4.6	261.8 ± 4.5	253 ± 4.4
[2], 328.2 K	–	–	–	–	281 ± 4.8	273.5 ± 4.7	265.1 ± 4.6	256.3 ± 4.5
[2], 333.2 K	–	–	–	–	284.4 ± 4.8	276.8 ± 4.7	268.4 ± 4.6	259.5 ± 4.5
[2], 338.2 K	–	–	–	–	287.7 ± 4.8	280.2 ± 4.7	271.6 ± 4.6	262.7 ± 4.5
[2], 343.2 K	–	–	–	–	291.1 ± 4.9	283.5 ± 4.8	274.9 ± 4.7	266 ± 4.6
[2], 348.2 K	–	–	–	–	294.4 ± 4.9	286.9 ± 4.8	278.2 ± 4.7	269.2 ± 4.6
[2], 353.2 K	–	–	–	–	297.7 ± 5	290.2 ± 4.9	281.4 ± 4.8	272.4 ± 4.6
[3], 303.2 K	2.3 ± 0.25	3.92 ± 0.28	5.4 ± 0.31	6.21 ± 0.32	–	–	–	–
[3], 308.2 K	2.46 ± 0.25	4.22 ± 0.28	5.73 ± 0.31	6.61 ± 0.33	–	–	–	–
[3], 313.2 K	2.63 ± 0.25	4.52 ± 0.29	6.06 ± 0.32	7.01 ± 0.34	–	–	–	–
[3], 318.2 K	2.79 ± 0.26	4.82 ± 0.3	6.4 ± 0.33	7.41 ± 0.35	–	–	–	–
[3], 323.2 K	2.97 ± 0.26	5.11 ± 0.3	6.74 ± 0.34	7.82 ± 0.36	–	–	–	–
[3], 328.2 K	3.12 ± 0.26	5.51 ± 0.31	7.06 ± 0.34	8.22 ± 0.36	–	–	–	–
[3], 333.2 K	3.29 ± 0.27	5.82 ± 0.32	7.41 ± 0.35	8.62 ± 0.37	–	–	–	–
[3], 338.2 K	3.46 ± 0.27	6.1 ± 0.32	7.73 ± 0.35	9.02 ± 0.38	–	–	–	–
[3], 343.2 K	3.63 ± 0.27	6.4 ± 0.33	8.06 ± 0.36	9.42 ± 0.39	–	–	–	–
[3], 348.2 K	3.79 ± 0.28	6.7 ± 0.33	8.39 ± 0.37	9.83 ± 0.4	–	–	–	–
[3], 353.2 K	3.95 ± 0.28	6.99 ± 0.34	8.72 ± 0.37	10.23 ± 0.4	–	–	–	–
